Literature values in paper PMC8747035, “Design, Synthesis, and Biological Evaluation of 5,6,7,8-Tetrahydrobenzo[4,5]thieno[2,3-d]pyrimidines as Microtubule Targeting Agents” (Molecules, 2022).

Assays:
Bovine brain tubulin = conditions: read-out: Inhibition of Tubulin Assembly IC50 ± SD; cited from earlier work
tubulin = conditions: compound at 5 μM; cited from earlier work
A-10 cells = conditions: read-out: EC50 for Microtubule Depolymerization in A-10 Cells; cited from earlier work
MDA-MB-435 cells = conditions: SRB assay, antiproliferative; read-out: IC50 ± SD in MDA-435 Cells; cited from earlier work
HeLa cells = conditions: read-out: IC50 ± SD in HeLa; cited from earlier work
HeLa WTβIII cells = conditions: read-out: IC50 ± SD in HeLa WTβ3; cited from earlier work
SK-OV-3 cells = conditions: read-out: IC50 ± SD in SK-OV-3 Cells; cited from earlier work
SK-OV-3 MDR1-M6/6 cells = conditions: read-out: IC50 ± SD in SK-OV-3 MDR1-M6/6 Cells; cited from earlier work

Compound | IC50 (Bovine brain tubulin) | Inhibition of Colchicine Binding (% inhibition ± SD) (tubulin) | EC50 (A-10 cells) | IC50 (MDA-MB-435 cells) | IC50 (HeLa cells) | IC50 (HeLa WTβIII cells) | IC50 (SK-OV-3 cells) | IC50 (SK-OV-3 MDR1-M6/6 cells)
COc1ccc(N(C)c2nc(N)nc3[nH]c4ccccc4c23)cc1 [Compound 1] | 1400 ± 7 nM | 84 ± 0.50% | 130 nM | 14.7 ± 1.5 nM | 21.3 ± 2.2 nM | 21.4 ± 3.5 nM | 27.6 ± 1.8 nM | 
CSc1ccc(N(C)c2nc(N)nc3[nH]c4ccccc4c23)cc1 [Compound 2] | 2300 ± 300 nM | 67.0 ± 5.0% | 1100 nM | 89.1 ± 10 nM | 118 ± 13 nM | 78.4 ± 4 nM | 156 ± 16 nM | 160 ± 15 nM
COc1ccc(N(C)c2ncnc3[nH]c4ccccc4c23)cc1 [Compound 3] | 2300 ± 400 nM | 62.0 ± 4.0% | 1200 nM | 130 ± 7.8 nM | 142 ± 8.1 nM | 99.5 ± 12 nM | 173 ± 8.6 nM | 224 ± 21 nM
